Legend:
[1] = pH of hydrated iron proteinate with or without added compound (Example 4); type: physicochemical; conditions: compound added to iron proteinate solution, compound to iron content about 1:1 by weight
Protocol: (§1) A small amount of the solution was placed on filter paper with a pipette. […] Next, several different organic acids and sugars were added to various samples of the solution. Each was inspected both visually and by placing a small amount of solution on filter paper with a pipette.

[2] = Visual inspection of hydrated iron proteinate with or without added compound (Example 4); type: physicochemical; conditions: compound added to iron proteinate solution, compound to iron content about 1:1 by weight
Protocol: as §1

[3] = Filter paper ring characterization of hydrated iron proteinate (Example 4); type: physicochemical; conditions: compound added to iron proteinate solution, about 1:1 by weight to iron
Protocol: An iron proteinate or iron protein hydrolysate which was hydrolyzed from a vegetable protein was formed having an iron content of about 10%. […] A small amount of the solution was placed on filter paper with a pipette. […] Next, several different organic acids and sugars were added to various samples of the solution. Each was inspected both visually and by placing a small amount of solution on filter paper with a pipette. […] This is evidenced by darker rings remaining on the filter paper which corresponded to location of the waterfront.

[4] = Visual inspection of aqueous iron bisglycinate with added compound (Example 3); type: physicochemical; conditions: compound added to aqueous iron bisglycinate, compound to iron content about 1.8:1 by weight
[5] = Filter paper ring characterization of aqueous iron bisglycinate (Example 3); type: physicochemical; conditions: for RING APPEARANCE: compound added to aqueous iron bisglycinate, about 1.8:1 by weight to iron, filter paper after drying
[6] = Filter paper test of hydrated samples (Example 1, Phase 1); type: physicochemical; conditions: hydrated with water sufficient to dissolve, after 4 hours, solution placed on filter paper with pipette
Protocol: After hydrating Sample 1 and Sample 2 with an amount of water sufficient to dissolve the respective powders and allowing 4 hours to pass, a small amount of each solution was placed on filter paper with a pipette. By placing the two solutions on paper in this manner, the respective solutions were allowed to disperse away from the point of application while leaving behind any solids that may have formed.

[7] = Visual examination of solutions retained in test tubes (Example 1, Phase 2); conditions: solution retained in test tube 20 additional hours (after first 4 hours)

| SMILES | pH [1] | VISUAL [2] | RING APPEARANCE [3] | VISUAL [4] | RING APPEARANCE [5] | mobility and solubility on the filter paper ([5]; added to separate samples of iron bisglycinate, versus control) | solids left behind on filter paper [6] | portion precipitated from solution (visual examination) [7] |
| --- | --- | --- | --- | --- | --- | --- | --- | --- |
| CC(=O)O [Acetic Acid] | 3.0 | no change | dark brown waterfront ring | – | – | – | – | – |
| O=C1O[C@H]([C@@H](O)CO)C(O)=C1O [Ascorbic Acid] | 4.5 | no change | dark brown waterfront ring | no precipitation | dark waterfront ring | – | – | – |
| O=C(O)CC(O)(CC(=O)O)C(=O)O [Citric Acid] | 1.5 | no change | dark brown waterfront ring | – | – | – | – | – |
| CC(O)C(=O)O (centres unmarked) [Lactic Acid] | 1.0 | no change | dark brown waterfront ring | no precipitation | dark waterfront ring | – | – | – |
| O=C(O)CC(O)C(=O)O (centres unmarked) [Malic Acid] | 2.0 | no change | dark brown waterfront ring | no precipitation | dark waterfront ring | enhancement of mobility and solubility | – | – |
| NCC(=O)[O-].NCC(=O)[O-].[Fe+2] [Sample 1, ferrous bisglycinate] | – | – | – | – | – | – | small clump of precipitate | approximately 50% |
| O=C(O)CCC(=O)O [Succinic Acid] | 2.0 | no change | dark brown waterfront ring | – | – | – | – | – |
| OC[C@H]1O[C@@](CO)(O[C@H]2O[C@H](CO)[C@@H](O)[C@H](O)[C@H]2O)[C@@H](O)[C@@H]1O [Sucrose] | 7.0 | no change | brown staggered rings | precipitated solids | light staggered ring | – | – | – |
